# Source: ChEMBL document CHEMBL1201862, “PubChem BioAssay data set” (2004)
# The source made the active and inactive calls.
# Legend:
# [1] = molecular target: T1, Eukaryotic translation initiation factor 2-alpha kinase 3 (Homo sapiens, UniProt Q9NZJ5); test: Dose response cell-based high-throughput screening assay to measure PERK inhibition. [Related pubchem assays: 1416 ]; format: functional
# T1 sequence (Q9NZJ5 whole entry): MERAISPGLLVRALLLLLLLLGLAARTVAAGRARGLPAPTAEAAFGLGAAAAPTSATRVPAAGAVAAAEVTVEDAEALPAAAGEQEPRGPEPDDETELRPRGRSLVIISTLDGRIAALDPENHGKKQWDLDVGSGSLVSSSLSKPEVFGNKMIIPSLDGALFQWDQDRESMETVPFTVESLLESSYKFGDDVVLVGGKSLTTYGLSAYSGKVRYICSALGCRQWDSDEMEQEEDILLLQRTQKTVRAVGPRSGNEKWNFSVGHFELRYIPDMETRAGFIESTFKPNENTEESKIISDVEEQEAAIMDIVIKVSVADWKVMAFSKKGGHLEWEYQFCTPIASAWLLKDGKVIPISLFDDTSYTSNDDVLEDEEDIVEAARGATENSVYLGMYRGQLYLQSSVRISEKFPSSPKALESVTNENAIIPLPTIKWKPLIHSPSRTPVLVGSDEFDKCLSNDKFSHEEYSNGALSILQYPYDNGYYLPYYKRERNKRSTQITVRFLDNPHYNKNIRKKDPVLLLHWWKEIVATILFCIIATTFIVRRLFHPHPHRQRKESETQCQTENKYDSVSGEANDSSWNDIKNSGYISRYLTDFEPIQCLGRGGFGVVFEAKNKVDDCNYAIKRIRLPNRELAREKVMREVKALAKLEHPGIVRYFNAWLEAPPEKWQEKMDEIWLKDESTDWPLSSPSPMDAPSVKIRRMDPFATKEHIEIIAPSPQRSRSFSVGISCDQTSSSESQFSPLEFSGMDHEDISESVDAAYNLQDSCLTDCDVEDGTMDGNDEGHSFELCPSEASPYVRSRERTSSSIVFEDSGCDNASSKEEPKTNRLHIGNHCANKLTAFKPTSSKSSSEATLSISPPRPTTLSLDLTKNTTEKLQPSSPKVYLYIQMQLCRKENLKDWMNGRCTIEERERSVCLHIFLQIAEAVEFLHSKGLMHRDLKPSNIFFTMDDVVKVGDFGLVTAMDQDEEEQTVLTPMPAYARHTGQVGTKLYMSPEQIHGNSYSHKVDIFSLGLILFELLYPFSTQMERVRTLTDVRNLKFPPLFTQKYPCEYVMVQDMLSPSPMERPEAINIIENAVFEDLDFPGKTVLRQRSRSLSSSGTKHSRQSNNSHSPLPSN
# [2] = molecular target: T1, Eukaryotic translation initiation factor 2-alpha kinase 3; test: Counterscreen assay for PERK inhibitors: Dose response cell-based high throughput screening assay to measure inhibition of PERK at 6 hours. [Related pubchem assays: 1522, 1416 ]; format: functional
# [3] = molecular target: Melanin-concentrating hormone receptor 1 (Homo sapiens, UniProt Q99705); test: Fluorescence-based counterscreen for antagonists of the G-protein coupled receptor 7 (GPR7): cell-based high throughput dose response assay to identify antagonists of the melanin-concentrating hormone receptor 1 (MCHR1).; format: functional
# Chain of Melanin-concentrating hormone receptor 1 (Q99705 whole entry): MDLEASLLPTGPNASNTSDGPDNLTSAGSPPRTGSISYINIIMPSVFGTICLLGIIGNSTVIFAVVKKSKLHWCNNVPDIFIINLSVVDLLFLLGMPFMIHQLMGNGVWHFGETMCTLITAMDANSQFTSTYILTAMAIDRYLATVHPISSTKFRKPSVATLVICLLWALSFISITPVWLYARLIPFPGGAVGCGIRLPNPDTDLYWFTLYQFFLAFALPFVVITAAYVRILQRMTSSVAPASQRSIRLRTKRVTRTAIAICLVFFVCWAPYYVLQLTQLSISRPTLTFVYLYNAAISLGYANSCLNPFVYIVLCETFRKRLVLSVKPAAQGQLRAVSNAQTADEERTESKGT
# [4] = LGR2 antagonists, dose response, cell-based, HEK293, CRE-luciferase reporter, cherry pick, set 2 (AID 743343); format: functional;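 further: transfected cells were stimulated with diluted bursicon conditioned medium after compound addition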
# [5] = MC4R antagonists, dose response, counter-screen for LGR2 antagonist project, cell-based, plate reader, cherry pick (AID 743444); format: functional;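 further: transfected HEK 293 cells stimulated with alpha-MSH peptide; potency of inhibitors of the alpha-MSH evoked signal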
# [6] = HepG2 cell cytotoxicity, dose response, cytotoxicity control, plate reader, cherry-pick, antagonist series (AID 743416); format: functional, cell-based
# [7] = microbe, parasite or virus in culture; format: functional; conditions: Mycobacterium tuberculosis
# [8] = molecular target: Neurotensin receptor type 1 (Homo sapiens, UniProt P30989); format: functional;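 further: Image-based confirmatory dose-response assay measuring agonist activity at NTR1; NTR1-expressing U2OS osteosarcoma cells imaged for beta-arrestin GFP spot formation; agonist potency where compounds increase beta-arrestin recruitment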
# Chain of Neurotensin receptor type 1 (P30989 whole entry): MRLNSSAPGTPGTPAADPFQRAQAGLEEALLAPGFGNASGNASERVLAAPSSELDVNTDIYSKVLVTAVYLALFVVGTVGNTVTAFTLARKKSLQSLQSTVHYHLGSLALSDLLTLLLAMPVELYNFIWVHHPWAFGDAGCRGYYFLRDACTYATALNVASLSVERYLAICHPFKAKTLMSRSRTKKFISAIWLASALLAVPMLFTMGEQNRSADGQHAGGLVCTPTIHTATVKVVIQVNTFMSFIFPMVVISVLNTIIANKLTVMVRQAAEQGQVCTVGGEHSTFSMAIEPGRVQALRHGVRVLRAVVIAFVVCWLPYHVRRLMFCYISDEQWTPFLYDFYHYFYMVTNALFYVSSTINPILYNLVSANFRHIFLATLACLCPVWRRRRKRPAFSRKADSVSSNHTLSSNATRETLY
# Albumin = Albumin (Bos taurus, UniProt P02769); test: Counterscreen for inhibitors of T-cell receptor (TCR)-CD3 interaction: Fluorescence-based biochemical high throughput dose response assay to identify inhibitors of T-cell receptor (TCR)-CD3 interaction using a TAMRA-labeled BSA probe.; format: functional
# Chain of Albumin (P02769 whole entry): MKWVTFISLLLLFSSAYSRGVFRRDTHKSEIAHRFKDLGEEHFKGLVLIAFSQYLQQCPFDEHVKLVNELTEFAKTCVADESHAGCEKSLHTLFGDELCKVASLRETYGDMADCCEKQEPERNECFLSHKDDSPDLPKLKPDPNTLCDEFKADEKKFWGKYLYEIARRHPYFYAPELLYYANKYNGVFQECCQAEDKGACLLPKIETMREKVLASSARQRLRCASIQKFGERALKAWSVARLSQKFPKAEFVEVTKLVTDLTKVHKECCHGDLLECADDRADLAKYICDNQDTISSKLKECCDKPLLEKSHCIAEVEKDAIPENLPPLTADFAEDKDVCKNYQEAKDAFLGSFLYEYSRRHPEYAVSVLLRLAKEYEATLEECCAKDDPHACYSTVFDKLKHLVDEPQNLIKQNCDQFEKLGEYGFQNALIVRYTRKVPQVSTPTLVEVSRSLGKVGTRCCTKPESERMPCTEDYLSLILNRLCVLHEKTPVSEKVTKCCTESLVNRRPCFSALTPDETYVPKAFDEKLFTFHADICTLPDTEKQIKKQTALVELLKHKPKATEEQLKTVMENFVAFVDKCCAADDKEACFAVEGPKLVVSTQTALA
# [9] = molecular target: T2, Alkaline phosphatase, tissue-nonspecific isozyme (Homo sapiens, UniProt P05186)
# T2 sequence (P05186 whole entry): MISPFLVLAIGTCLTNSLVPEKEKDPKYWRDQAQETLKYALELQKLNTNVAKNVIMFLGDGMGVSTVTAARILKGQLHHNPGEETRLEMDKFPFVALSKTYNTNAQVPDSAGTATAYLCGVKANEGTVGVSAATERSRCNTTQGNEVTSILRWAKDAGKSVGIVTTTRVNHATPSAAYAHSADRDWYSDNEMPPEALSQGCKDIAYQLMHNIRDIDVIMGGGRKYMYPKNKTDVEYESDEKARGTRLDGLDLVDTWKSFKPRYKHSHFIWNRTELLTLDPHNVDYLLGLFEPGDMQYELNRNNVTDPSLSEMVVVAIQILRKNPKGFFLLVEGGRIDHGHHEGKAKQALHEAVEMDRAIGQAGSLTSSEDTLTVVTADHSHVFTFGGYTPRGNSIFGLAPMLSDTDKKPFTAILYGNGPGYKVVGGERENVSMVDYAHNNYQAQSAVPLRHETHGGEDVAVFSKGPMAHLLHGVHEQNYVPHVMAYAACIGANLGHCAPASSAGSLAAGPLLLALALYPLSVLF
# Trypsin = Trypsin (Sus scrofa, UniProt P00761); test: porcine trypsin inhibitors, dose response, selectivity assay for Rce1 protease inhibitor project, biochemical, quenched peptide fluorescence, cherry-pick (AID 488789)
# Chain of Trypsin (P00761 whole entry): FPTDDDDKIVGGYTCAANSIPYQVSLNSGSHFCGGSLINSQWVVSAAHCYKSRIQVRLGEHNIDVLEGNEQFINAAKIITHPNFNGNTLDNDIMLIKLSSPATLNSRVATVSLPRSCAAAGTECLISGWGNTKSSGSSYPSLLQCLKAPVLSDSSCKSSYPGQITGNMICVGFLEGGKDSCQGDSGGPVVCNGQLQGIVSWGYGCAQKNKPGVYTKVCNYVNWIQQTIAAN
# Cytochrome P450 2C9 = Cytochrome P450 2C9 (Homo sapiens, UniProt P11712); conditions: Potency
# Chain of Cytochrome P450 2C9 (P11712 whole entry): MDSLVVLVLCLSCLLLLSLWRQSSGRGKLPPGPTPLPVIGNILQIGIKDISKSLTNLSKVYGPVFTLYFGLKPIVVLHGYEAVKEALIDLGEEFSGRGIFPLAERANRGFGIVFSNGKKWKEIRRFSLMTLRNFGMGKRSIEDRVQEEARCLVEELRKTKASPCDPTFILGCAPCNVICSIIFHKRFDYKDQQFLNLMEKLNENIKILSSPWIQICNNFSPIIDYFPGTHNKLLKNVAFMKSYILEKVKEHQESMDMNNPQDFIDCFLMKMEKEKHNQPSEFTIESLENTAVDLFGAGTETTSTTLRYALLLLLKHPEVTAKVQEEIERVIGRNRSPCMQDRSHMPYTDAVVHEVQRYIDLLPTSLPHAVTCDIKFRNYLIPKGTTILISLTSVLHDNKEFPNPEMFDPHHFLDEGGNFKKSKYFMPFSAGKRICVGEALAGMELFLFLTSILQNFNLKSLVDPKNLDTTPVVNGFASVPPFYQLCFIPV
# [10] = molecular target: Protein-tyrosine kinase 2-beta (Homo sapiens, UniProt Q14289);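 further: potency of inhibitors of PYK2 kinase phosphorylation of poly-GT substrate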
# Chain of Protein-tyrosine kinase 2-beta (Q14289 whole entry): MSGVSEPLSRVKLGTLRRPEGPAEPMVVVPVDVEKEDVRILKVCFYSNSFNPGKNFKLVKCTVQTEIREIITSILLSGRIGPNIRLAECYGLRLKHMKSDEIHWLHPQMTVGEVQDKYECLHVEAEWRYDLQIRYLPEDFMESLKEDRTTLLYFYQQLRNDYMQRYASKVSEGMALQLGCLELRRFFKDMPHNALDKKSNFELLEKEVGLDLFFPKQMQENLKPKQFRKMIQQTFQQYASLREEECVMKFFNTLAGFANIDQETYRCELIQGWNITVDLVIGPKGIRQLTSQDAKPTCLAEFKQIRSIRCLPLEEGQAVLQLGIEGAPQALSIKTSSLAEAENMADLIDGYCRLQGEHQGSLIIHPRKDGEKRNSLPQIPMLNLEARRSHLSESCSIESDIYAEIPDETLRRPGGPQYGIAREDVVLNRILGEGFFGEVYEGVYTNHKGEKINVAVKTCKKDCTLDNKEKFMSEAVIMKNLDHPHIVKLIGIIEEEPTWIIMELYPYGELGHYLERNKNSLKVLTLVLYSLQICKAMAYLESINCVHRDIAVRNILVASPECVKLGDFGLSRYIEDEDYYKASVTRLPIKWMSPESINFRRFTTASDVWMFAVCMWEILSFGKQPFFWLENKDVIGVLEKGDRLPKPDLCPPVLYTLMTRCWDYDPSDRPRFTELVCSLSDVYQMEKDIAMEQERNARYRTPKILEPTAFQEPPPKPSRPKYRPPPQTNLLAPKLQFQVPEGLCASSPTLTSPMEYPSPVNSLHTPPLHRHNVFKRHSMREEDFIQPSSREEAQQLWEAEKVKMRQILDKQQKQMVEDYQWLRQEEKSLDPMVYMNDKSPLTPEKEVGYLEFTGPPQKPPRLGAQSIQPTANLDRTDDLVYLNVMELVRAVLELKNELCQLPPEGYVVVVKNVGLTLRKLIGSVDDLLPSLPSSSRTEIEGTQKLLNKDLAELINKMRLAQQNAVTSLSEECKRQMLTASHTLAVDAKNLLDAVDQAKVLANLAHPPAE
# [11] = molecular target: Cyclin-dependent kinase 5/CDK5 activator 1 (Homo sapiens, UniProt Q00535); test: CDK5/p35 kinase inhibitors, dose response, biochemical, cherry-picked samples, set 2 (AID 504545)
# Chain of Cyclin-dependent kinase 5/CDK5 activator 1 (Q00535 whole entry): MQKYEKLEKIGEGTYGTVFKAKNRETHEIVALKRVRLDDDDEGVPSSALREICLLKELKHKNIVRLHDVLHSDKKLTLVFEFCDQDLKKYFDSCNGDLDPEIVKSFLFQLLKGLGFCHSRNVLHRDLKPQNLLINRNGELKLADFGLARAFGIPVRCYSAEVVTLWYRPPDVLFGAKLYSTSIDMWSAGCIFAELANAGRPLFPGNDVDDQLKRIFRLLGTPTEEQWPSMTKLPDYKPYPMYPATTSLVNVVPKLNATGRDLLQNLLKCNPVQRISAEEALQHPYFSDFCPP
# Chain of Cyclin-dependent kinase 5/CDK5 activator 1 (Q15078 whole entry, further chain): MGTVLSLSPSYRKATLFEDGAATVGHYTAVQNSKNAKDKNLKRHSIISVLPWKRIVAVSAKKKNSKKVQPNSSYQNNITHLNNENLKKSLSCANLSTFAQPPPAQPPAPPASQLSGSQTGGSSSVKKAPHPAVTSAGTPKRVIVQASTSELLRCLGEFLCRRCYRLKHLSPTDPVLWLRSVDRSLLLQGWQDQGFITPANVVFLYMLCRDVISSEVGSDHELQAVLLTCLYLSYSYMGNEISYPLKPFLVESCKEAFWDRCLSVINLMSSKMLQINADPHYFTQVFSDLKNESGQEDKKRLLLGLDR
# [12] = molecular target: T3, Heat shock factor protein 1 (Mus musculus, UniProt P38532); test: HSF1 potentiators in luciferase reporter cells, confirmation, cell-based, NIH3T3, luminescence, dose retest (AID 435004); format: functional;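 further: stress induced by proteasome inhibitor MG132 added 30 min after compound; luciferase reporter driven by HSF1 response element in NIH3T3 cells; actives raise luminescence as potentiators of the MG132 stress response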
# T3 sequence (P38532 whole entry): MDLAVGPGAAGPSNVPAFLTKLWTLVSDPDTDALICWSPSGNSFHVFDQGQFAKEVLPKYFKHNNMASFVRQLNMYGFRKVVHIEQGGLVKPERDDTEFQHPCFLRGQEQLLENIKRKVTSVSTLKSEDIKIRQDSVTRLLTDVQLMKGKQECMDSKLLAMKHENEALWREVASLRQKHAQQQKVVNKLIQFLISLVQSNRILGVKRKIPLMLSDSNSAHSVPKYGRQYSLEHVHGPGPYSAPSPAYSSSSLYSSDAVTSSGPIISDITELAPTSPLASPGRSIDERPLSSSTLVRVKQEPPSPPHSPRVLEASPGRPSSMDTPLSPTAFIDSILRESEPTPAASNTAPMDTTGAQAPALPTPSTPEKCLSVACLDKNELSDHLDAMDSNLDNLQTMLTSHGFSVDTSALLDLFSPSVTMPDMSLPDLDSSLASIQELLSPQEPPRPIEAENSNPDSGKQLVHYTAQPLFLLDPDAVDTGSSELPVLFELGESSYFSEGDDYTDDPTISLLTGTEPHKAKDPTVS
# HEK293 = test: HEK cell cytotoxicity by LDH release, dose response, cytotoxicity control for IDE activator project, fluorescence, HEK cells (AID 588440); format: functional, cell-based, Homo sapiens; conditions: hek293;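 further: cytotoxicity by LDH release measuring loss of membrane integrity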
# Insulin-degrading enzyme [13] = molecular target: T4, Insulin-degrading enzyme (Homo sapiens, UniProt P14735); test: activators of recombinant IDE enzyme, dose response, counter-screen for IDE activator project, biochemical, fluorescence polarization (AID 588681)
# T4 sequence (P14735 whole entry): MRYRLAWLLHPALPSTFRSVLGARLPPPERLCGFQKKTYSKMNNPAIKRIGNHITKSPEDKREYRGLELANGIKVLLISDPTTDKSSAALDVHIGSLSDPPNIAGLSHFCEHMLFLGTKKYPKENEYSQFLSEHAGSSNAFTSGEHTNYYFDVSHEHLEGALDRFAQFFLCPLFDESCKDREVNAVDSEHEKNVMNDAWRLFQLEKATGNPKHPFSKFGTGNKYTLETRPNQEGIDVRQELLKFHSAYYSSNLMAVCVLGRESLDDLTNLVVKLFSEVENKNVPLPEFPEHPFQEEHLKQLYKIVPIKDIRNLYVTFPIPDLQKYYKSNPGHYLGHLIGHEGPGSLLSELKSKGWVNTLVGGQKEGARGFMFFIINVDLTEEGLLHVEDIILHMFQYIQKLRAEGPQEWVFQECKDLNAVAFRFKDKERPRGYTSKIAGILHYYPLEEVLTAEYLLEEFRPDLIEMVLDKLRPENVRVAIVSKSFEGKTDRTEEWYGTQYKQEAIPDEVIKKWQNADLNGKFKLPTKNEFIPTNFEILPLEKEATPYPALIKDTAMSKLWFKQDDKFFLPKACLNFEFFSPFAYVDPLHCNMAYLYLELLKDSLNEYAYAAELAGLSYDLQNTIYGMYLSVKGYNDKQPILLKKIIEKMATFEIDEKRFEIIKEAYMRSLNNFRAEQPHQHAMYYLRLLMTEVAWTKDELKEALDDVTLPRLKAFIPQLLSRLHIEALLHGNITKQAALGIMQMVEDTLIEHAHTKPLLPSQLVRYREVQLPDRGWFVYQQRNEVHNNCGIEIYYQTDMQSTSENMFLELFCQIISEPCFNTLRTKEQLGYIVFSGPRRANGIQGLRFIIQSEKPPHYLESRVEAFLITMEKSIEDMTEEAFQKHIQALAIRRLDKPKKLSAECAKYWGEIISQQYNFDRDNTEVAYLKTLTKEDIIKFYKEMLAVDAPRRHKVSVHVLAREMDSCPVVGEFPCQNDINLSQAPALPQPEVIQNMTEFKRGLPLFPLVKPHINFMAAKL
# HeLa = test: HeLa cell cytotoxicity, dose response, cytotoxicity control, 24 h, cherry-picked samples (AID 504726); format: functional, cell-based; conditions: Homo sapiens;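 further: potency for cytotoxicity as loss of luminescence signal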
# [14] = HeLa cell cytotoxicity, dose response, cytotoxicity control for MgcRacGAP inhibitor project (AID 624300); format: functional
# [15] = molecular target: T5, Rac GTPase-activating protein 1 (Homo sapiens, UniProt Q9H0H5); test: MgcRacGAP GTPase-activating activity inhibitors, confirmation, biochemical, ADP Hunter fluorescence, primary and confirmatory (AID 624330); format: functional
# T5 sequence (Q9H0H5 whole entry): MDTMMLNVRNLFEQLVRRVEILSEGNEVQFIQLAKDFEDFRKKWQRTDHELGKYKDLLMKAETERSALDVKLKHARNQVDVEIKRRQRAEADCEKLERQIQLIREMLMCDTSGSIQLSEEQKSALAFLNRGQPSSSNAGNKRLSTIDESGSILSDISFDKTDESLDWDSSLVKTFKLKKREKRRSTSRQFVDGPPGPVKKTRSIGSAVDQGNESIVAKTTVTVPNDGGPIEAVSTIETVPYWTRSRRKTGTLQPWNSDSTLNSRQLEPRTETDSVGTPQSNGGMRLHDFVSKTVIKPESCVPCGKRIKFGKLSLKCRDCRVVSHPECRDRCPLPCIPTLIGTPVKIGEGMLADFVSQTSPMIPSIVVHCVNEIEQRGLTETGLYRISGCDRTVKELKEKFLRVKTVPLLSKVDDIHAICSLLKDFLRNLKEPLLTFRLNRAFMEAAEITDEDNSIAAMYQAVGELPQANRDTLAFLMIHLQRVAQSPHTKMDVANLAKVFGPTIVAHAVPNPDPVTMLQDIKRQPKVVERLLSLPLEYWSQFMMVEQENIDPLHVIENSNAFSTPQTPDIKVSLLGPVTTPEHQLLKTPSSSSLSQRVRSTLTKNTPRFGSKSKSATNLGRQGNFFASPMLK
# ORF 73 = ORF 73 (Human herpesvirus 8, UniProt O40947); test: inhibitors of C-LANA binding to LBS DNA, dose response, biochemical, fluorescence polarization, cherry-picked samples (AID 504725); parameters: species or system Human gammaherpesvirus 8;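 further: fluorescence polarization of a labeled DNA duplex reporting LANA DNA binding; potency is for inhibitors that block LANA binding to the DNA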
# Chain of ORF 73 (O40947 whole entry): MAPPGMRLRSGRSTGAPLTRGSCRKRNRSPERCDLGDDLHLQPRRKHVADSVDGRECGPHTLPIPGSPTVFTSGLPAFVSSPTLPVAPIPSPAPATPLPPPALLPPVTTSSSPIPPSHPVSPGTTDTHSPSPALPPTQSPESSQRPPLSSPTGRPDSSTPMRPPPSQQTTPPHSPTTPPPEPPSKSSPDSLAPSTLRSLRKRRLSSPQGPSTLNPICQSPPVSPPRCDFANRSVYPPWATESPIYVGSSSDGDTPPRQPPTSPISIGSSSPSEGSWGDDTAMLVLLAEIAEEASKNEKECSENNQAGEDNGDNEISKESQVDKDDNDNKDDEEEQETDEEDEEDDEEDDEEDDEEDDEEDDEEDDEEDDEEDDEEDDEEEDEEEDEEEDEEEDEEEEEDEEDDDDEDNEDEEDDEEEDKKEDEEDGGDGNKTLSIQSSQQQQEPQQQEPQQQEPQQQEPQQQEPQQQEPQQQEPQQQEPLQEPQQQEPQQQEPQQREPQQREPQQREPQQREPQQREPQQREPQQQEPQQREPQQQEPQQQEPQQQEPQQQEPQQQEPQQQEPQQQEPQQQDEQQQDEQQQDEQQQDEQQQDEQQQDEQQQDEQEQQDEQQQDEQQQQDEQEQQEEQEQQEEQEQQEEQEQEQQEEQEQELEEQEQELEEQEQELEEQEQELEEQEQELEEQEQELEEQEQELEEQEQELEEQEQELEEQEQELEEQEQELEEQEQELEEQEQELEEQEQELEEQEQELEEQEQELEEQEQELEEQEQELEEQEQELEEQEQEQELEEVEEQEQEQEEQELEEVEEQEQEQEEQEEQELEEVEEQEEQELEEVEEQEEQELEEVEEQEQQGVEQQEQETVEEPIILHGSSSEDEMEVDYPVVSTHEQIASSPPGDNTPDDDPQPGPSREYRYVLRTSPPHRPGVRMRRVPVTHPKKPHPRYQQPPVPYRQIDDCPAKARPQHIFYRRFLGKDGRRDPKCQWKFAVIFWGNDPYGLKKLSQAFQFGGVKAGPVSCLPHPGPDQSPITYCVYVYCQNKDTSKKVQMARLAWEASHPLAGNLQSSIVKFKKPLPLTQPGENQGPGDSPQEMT
# Insulin-degrading enzyme [16] = molecular target: T4, Insulin-degrading enzyme; test: activators of endogenous IDE in HEK cells, dose response, cell-based, fluorescence polarization (AID 588439); format: functional
# Prothrombin = Prothrombin (Homo sapiens, UniProt P00734); test: Thrombin 1536 HTS Dose Response Confirmation. [Related pubchem assays: 1046 (Thrombin 1536 HTS; hits were confirmed in this assay)]; format: functional
compound,measurement,setting,value
Cc1cc(C)c(NC(=O)NC(=O)C(Cl)(Cl)Cl)c(C)c1,EC50,[1],> 55.7 µM (not active)
same,EC50,[2],> 55.7 µM (not active)
CCOC(=O)C(C)On1c(-c2ccccc2)nc2ccc([N+](=O)[O-])cc21 (stereo not drawn),IC50,[3],15.9 µM (not active)
COC(=O)c1ccc(NC(=O)CSc2nc3ccc(N4C(=O)C5C6C=CC(C6)C5C4=O)cc3s2)cc1 (stereo not drawn),AC50,[4],8.11 µM (active)
same,AC50,[5],7.79 µM (active)
same,AC50,[6],> 52 µM (inactive)
same,CC50,[7],> 40 µM (active)
same,EC50,[8],> 40 µM (inactive)
COc1ccc(/C=C2\SC(=O)N(CC(=O)NNC(=O)c3ccccc3O)C2=O)cc1,IC50,Albumin,> 94.1 µM (inactive)
same,EC50,[9],64.3 µM (not active)
COc1ccc(-c2ccc(-c3nnc(-c4cc(OC)ccc4OC)o3)cc2)cc1,AC50,Trypsin,10.4 µM (active)
CCOC(=O)OCC1OC(c2ccccc2)C=CC1OC(=O)OCC (stereo not drawn),AC50,Cytochrome P450 2C9,3.16 µM (inconclusive)
O=C1Nc2ccccc2/C1=C/c1c[nH]cn1,IC50,[10],8.78 µM (active)
same,AC50,[11],0.268 µM (active)
same,EC50,[12],17.5 µM (active)
C[n+]1c2cc(N)ccc2cc2ccc(N)cc21 [EUFLAVINE],IC50,HEK293,> 89.2 µM (inactive)
same,EC50,Insulin-degrading enzyme [13],> 54.7 µM (inactive)
same,AC50,HeLa,14.7 µM (active)
same,CC50,[14],11.6 µM (active)
same,IC50,[15],78.3 µM (active)
same,AC50,ORF 73,0.415 µM (active)
same,EC50,Insulin-degrading enzyme [16],> 54.7 µM (inactive)
COc1ccc(CCNC(=O)C2CCC(CNS(=O)(=O)c3ccccc3)CC2)cc1OC (stereo not drawn),IC50,Prothrombin,> 50 µM (not active)
same,EC50,[9],> 100 µM (not active)
C=C[C@@](C)(O)CC[C@H]1[C@]2(C)CCCC(C)(C)[C@H]2CC[C@]1(C)O,AC50,Cytochrome P450 2C9,31.6 µM (inconclusive)
COc1cc(/C=N/Nc2nc(-c3ccc(S(=O)(=O)N(C)C)cc3)cs2)ccc1O,EC50,[8],17.6 µM (active)
CC(NS(=O)(=O)c1ccccc1)c1nnc(S)n1-c1ccccc1 (stereo not drawn),EC50,[1],> 55.7 µM (not active)
same,EC50,[2],> 55.7 µM (not active)
